Measurements: the NIST ThermoML archive (doi:10.1016/j.jct.2017.07.034)
± gives the expanded uncertainty stated by the source.

How the values were obtained:
[1] = mn = molality of the nth substance listed, in mol/kg; conditions: 99.6 kPa, Liquid, Vibrating tube method
[2] = 99.6 kPa, Liquid, Vibrating tube method

Question: With `CCN1C(=O)N(C)[C@@H]2[C@H]1N(C)C(=O)N2CC` + O as the compound, how does the mass density ([1]; 278.15 K, m1 = 0.01976) read?
Answer: 1000.71 ± 0.11 kg/m3

Question: And the mass density ([1]; 278.15 K, m1 = 0.04272)?
Answer: 1001.58 ± 0.11 kg/m3

Question: What about the mass density ([1]; 278.15 K, m1 = 0.06009) of the same compound?
Answer: 1002.23 ± 0.11 kg/m3

Question: And the mass density ([1]; 278.15 K, m1 = 0.07765)?
Answer: 1002.88 ± 0.11 kg/m3

Question: What about the mass density ([1]; 278.15 K, m1 = 0.1094) of the same compound?
Answer: 1004.07 ± 0.11 kg/m3

Question: And the mass density ([1]; 278.15 K, m1 = 0.136)?
Answer: 1005.05 ± 0.11 kg/m3

Question: And the mass density ([1]; 278.15 K, m1 = 0.155)?
Answer: 1005.75 ± 0.11 kg/m3

Question: What about the mass density ([1]; 278.15 K, m1 = 0.1749) of the same compound?
Answer: 1006.48 ± 0.11 kg/m3

Question: What about the mass density ([1]; 278.15 K, m1 = 0.1935) of the same compound?
Answer: 1007.16 ± 0.11 kg/m3

Question: What about the mass density ([1]; 288.15 K, m1 = 0.01976) of the same compound?
Answer: 999.821 ± 0.11 kg/m3

Question: What about the mass density ([1]; 288.15 K, m1 = 0.04272) of the same compound?
Answer: 1000.65 ± 0.11 kg/m3

Question: What about the mass density ([1]; 288.15 K, m1 = 0.06009) of the same compound?
Answer: 1001.28 ± 0.11 kg/m3

Question: What about the mass density ([1]; 288.15 K, m1 = 0.07765) of the same compound?
Answer: 1001.91 ± 0.11 kg/m3

Question: And the mass density ([1]; 288.15 K, m1 = 0.1094)?
Answer: 1003.04 ± 0.11 kg/m3

Question: What about the mass density ([1]; 288.15 K, m1 = 0.136) of the same compound?
Answer: 1003.98 ± 0.11 kg/m3

Question: And the mass density ([1]; 288.15 K, m1 = 0.155)?
Answer: 1004.64 ± 0.11 kg/m3

Question: And the mass density ([1]; 288.15 K, m1 = 0.1749)?
Answer: 1005.34 ± 0.11 kg/m3

Question: And the mass density ([1]; 288.15 K, m1 = 0.1935)?
Answer: 1005.98 ± 0.11 kg/m3

Question: What about the mass density ([1]; 298.15 K, m1 = 0.01976) of the same compound?
Answer: 997.745 ± 0.11 kg/m3

Question: And the mass density ([1]; 298.15 K, m1 = 0.04272)?
Answer: 998.551 ± 0.11 kg/m3

Question: What about the mass density ([1]; 298.15 K, m1 = 0.06009) of the same compound?
Answer: 999.157 ± 0.11 kg/m3

Question: And the mass density ([1]; 298.15 K, m1 = 0.07765)?
Answer: 999.764 ± 0.11 kg/m3

Question: And the mass density ([1]; 298.15 K, m1 = 0.1094)?
Answer: 1000.85 ± 0.11 kg/m3

Question: What about the mass density ([1]; 298.15 K, m1 = 0.136) of the same compound?
Answer: 1001.76 ± 0.11 kg/m3

Question: And the mass density ([1]; 298.15 K, m1 = 0.155)?
Answer: 1002.4 ± 0.11 kg/m3

Question: What about the mass density ([1]; 298.15 K, m1 = 0.1749) of the same compound?
Answer: 1003.07 ± 0.11 kg/m3

Question: And the mass density ([1]; 298.15 K, m1 = 0.1935)?
Answer: 1003.68 ± 0.11 kg/m3

Question: What about the mass density ([1]; 308.15 K, m1 = 0.01976) of the same compound?
Answer: 994.713 ± 0.11 kg/m3

Question: What about the mass density ([1]; 308.15 K, m1 = 0.04272) of the same compound?
Answer: 995.494 ± 0.11 kg/m3

Question: And the mass density ([1]; 308.15 K, m1 = 0.06009)?
Answer: 996.08 ± 0.11 kg/m3

Question: What about the mass density ([1]; 308.15 K, m1 = 0.07765) of the same compound?
Answer: 996.672 ± 0.11 kg/m3

Question: What about the mass density ([1]; 308.15 K, m1 = 0.1094) of the same compound?
Answer: 997.724 ± 0.11 kg/m3

Question: What about the mass density ([1]; 308.15 K, m1 = 0.136) of the same compound?
Answer: 998.597 ± 0.11 kg/m3

Question: What about the mass density ([1]; 308.15 K, m1 = 0.155) of the same compound?
Answer: 999.219 ± 0.11 kg/m3

Question: And the mass density ([1]; 308.15 K, m1 = 0.1749)?
Answer: 999.861 ± 0.11 kg/m3

Question: What about the mass density ([1]; 308.15 K, m1 = 0.1935) of the same compound?
Answer: 1000.46 ± 0.11 kg/m3

Question: And the mass density ([1]; 318.15 K, m1 = 0.01976)?
Answer: 990.876 ± 0.11 kg/m3

Question: What about the mass density ([1]; 318.15 K, m1 = 0.04272) of the same compound?
Answer: 991.636 ± 0.11 kg/m3

Question: And the mass density ([1]; 318.15 K, m1 = 0.06009)?
Answer: 992.207 ± 0.11 kg/m3

Question: And the mass density ([1]; 318.15 K, m1 = 0.07765)?
Answer: 992.779 ± 0.11 kg/m3

Question: And the mass density ([1]; 318.15 K, m1 = 0.1094)?
Answer: 993.803 ± 0.11 kg/m3

Question: What about the mass density ([1]; 318.15 K, m1 = 0.136) of the same compound?
Answer: 994.654 ± 0.11 kg/m3

Question: And the mass density ([1]; 318.15 K, m1 = 0.155)?
Answer: 995.256 ± 0.11 kg/m3

Question: And the mass density ([1]; 318.15 K, m1 = 0.1749)?
Answer: 995.879 ± 0.11 kg/m3

Question: What about the mass density ([1]; 318.15 K, m1 = 0.1935) of the same compound?
Answer: 996.461 ± 0.11 kg/m3

Question: Which results are given for `CCN1C(=O)N(C)[C@@H]2[C@H]1N(C)C(=O)N2CC` + [2H]O[2H]?
Answer: mass density ([1]; 278.15 K, m1 = 0.02067): 1105.97 ± 0.12 kg/m3; mass density ([1]; 278.15 K, m1 = 0.03855): 1106.36 ± 0.12 kg/m3; mass density ([1]; 278.15 K, m1 = 0.06093): 1106.84 ± 0.12 kg/m3; mass density ([1]; 278.15 K, m1 = 0.08301): 1107.32 ± 0.12 kg/m3; mass density ([1]; 278.15 K, m1 = 0.09921): 1107.67 ± 0.12 kg/m3; mass density ([1]; 278.15 K, m1 = 0.1206): 1108.14 ± 0.12 kg/m3; mass density ([1]; 278.15 K, m1 = 0.1402): 1108.56 ± 0.12 kg/m3; mass density ([1]; 278.15 K, m1 = 0.159): 1108.97 ± 0.12 kg/m3; mass density ([1]; 278.15 K, m1 = 0.1743): 1109.3 ± 0.12 kg/m3; mass density ([1]; 288.15 K, m1 = 0.02067): 1106.17 ± 0.12 kg/m3; mass density ([1]; 288.15 K, m1 = 0.03855): 1106.51 ± 0.12 kg/m3; mass density ([1]; 288.15 K, m1 = 0.06093): 1106.94 ± 0.12 kg/m3; mass density ([1]; 288.15 K, m1 = 0.08301): 1107.36 ± 0.12 kg/m3; mass density ([1]; 288.15 K, m1 = 0.09921): 1107.67 ± 0.12 kg/m3; mass density ([1]; 288.15 K, m1 = 0.1206): 1108.07 ± 0.12 kg/m3; mass density ([1]; 288.15 K, m1 = 0.1402): 1108.44 ± 0.12 kg/m3; mass density ([1]; 288.15 K, m1 = 0.159): 1108.8 ± 0.12 kg/m3; mass density ([1]; 288.15 K, m1 = 0.1743): 1109.08 ± 0.12 kg/m3; mass density ([1]; 298.15 K, m1 = 0.02067): 1104.7 ± 0.12 kg/m3; mass density ([1]; 298.15 K, m1 = 0.03855): 1105 ± 0.12 kg/m3; mass density ([1]; 298.15 K, m1 = 0.06093): 1105.38 ± 0.12 kg/m3; mass density ([1]; 298.15 K, m1 = 0.08301): 1105.75 ± 0.12 kg/m3; mass density ([1]; 298.15 K, m1 = 0.09921): 1106.03 ± 0.12 kg/m3; mass density ([1]; 298.15 K, m1 = 0.1206): 1106.39 ± 0.12 kg/m3; mass density ([1]; 298.15 K, m1 = 0.1402): 1106.71 ± 0.12 kg/m3; mass density ([1]; 298.15 K, m1 = 0.159): 1107.03 ± 0.12 kg/m3; mass density ([1]; 298.15 K, m1 = 0.1743): 1107.28 ± 0.12 kg/m3; mass density ([1]; 308.15 K, m1 = 0.02067): 1101.97 ± 0.12 kg/m3; mass density ([1]; 308.15 K, m1 = 0.03855): 1102.24 ± 0.12 kg/m3; mass density ([1]; 308.15 K, m1 = 0.06093): 1102.58 ± 0.12 kg/m3; mass density ([1]; 308.15 K, m1 = 0.08301): 1102.91 ± 0.12 kg/m3; mass density ([1]; 308.15 K, m1 = 0.09921): 1103.16 ± 0.12 kg/m3; mass density ([1]; 308.15 K, m1 = 0.1206): 1103.47 ± 0.12 kg/m3; mass density ([1]; 308.15 K, m1 = 0.1402): 1103.76 ± 0.12 kg/m3; mass density ([1]; 308.15 K, m1 = 0.159): 1104.04 ± 0.12 kg/m3; mass density ([1]; 308.15 K, m1 = 0.1743): 1104.28 ± 0.12 kg/m3; mass density ([1]; 318.15 K, m1 = 0.02067): 1098.15 ± 0.12 kg/m3; mass density ([1]; 318.15 K, m1 = 0.03855): 1098.4 ± 0.12 kg/m3; mass density ([1]; 318.15 K, m1 = 0.06093): 1098.71 ± 0.12 kg/m3; mass density ([1]; 318.15 K, m1 = 0.08301): 1099.01 ± 0.12 kg/m3; mass density ([1]; 318.15 K, m1 = 0.09921): 1099.23 ± 0.12 kg/m3; mass density ([1]; 318.15 K, m1 = 0.1206): 1099.52 ± 0.12 kg/m3; mass density ([1]; 318.15 K, m1 = 0.1402): 1099.78 ± 0.12 kg/m3; mass density ([1]; 318.15 K, m1 = 0.159): 1100.04 ± 0.12 kg/m3; mass density ([1]; 318.15 K, m1 = 0.1743): 1100.24 ± 0.12 kg/m3

Question: For `[2H]O[2H]` [water-d2], which mass density ([2]; 278.15 K) is on record?
Answer: 1105.52 ± 0.12 kg/m3

Question: What about the mass density ([2]; 288.15 K) of the same compound?
Answer: 1105.78 ± 0.12 kg/m3

Question: And the mass density ([2]; 298.15 K)?
Answer: 1104.34 ± 0.12 kg/m3

Question: What about the mass density ([2]; 308.15 K) of the same compound?
Answer: 1101.65 ± 0.12 kg/m3

Question: And the mass density ([2]; 318.15 K)?
Answer: 1097.87 ± 0.12 kg/m3

Question: Which mass density ([1]; 278.15 K, m2 = 0) does the source give for `[2H]O[2H]` [water-d2] + CCN1C(=O)N(C)[C@@H]2[C@H]1N(C)C(=O)N2CC here?
Answer: 1105.52 ± 0.12 kg/m3

Question: What about the mass density ([1]; 288.15 K, m2 = 0) of the same compound?
Answer: 1105.78 ± 0.12 kg/m3

Question: What about the mass density ([1]; 298.15 K, m2 = 0) of the same compound?
Answer: 1104.34 ± 0.12 kg/m3

Question: What about the mass density ([1]; 308.15 K, m2 = 0) of the same compound?
Answer: 1101.65 ± 0.12 kg/m3

Question: What about the mass density ([1]; 318.15 K, m2 = 0) of the same compound?
Answer: 1097.87 ± 0.12 kg/m3

Question: For `O` [water] + CCN1C(=O)N(C)[C@@H]2[C@H]1N(C)C(=O)N2CC, which mass density ([1]; 278.15 K, m2 = 0) is on record?
Answer: 999.964 ± 0.11 kg/m3
